biological target: Recombinant human LSD1 (Homo sapiens, UniProt O60341); test: LSD1 inhibition assay (HTRF LSD1 Histone H3K4 mono-demethylation assay, me1->me0); format: biochemical; conditions: 20 nM recombinant human LSD1, 95 nM H3K4(me1) biotinylated peptide, 15 min preincubation, 60 min at 25° C., read-out: LSD1 inhibition IC50 (nM range)
Method in brief: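 HTRF demethylation (me1->me0) read-out: streptavidin-XL665 and anti-H3K4me0 cryptate added after reaction, ratio measured after 90 min dark. Reaction: 95 nM H3K4me1 biotin-peptide, 20 nM LSD1 (15-min compound pre-incubation), 60 min, 25 °C, buffer pH 8.5 plus FAD and DTT; 4-parameter logistic IC50.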

Row | IC50 [nM] | SMILES
1 | 100 to 1000 | N#Cc1ccc(-c2cc(CC3CNCCO3)ccc2N2CCC2)cc1F (stereo not shown) [Example 44, 2′-(azetidin-1-yl)-3-fluoro-5′-[(morpholin-2-yl)methyl]-[1,1′-biphenyl]-4-carbonitrile]
2 | 100 to 1000 | Cc1cnsc1-c1c(CC2CNCCO2)cccc1-c1ccc(C#N)c(F)c1 (stereo not shown) [Example 45, 3-fluoro-2′-(4-methyl-1,2-thiazol-5-yl)-3′-[(morpholin-2-yl)methyl]-[1,1′-biphenyl]-4-carbonitrile]
3 | 25 to 100 | N#Cc1ccc(-c2cccc(CC3CNCCCO3)c2N2CCC2)cc1F (stereo not shown) [Example 46, 2′-(azetidin-1-yl)-3-fluoro-3′-[(1,4-oxazepan-2-yl)methyl]-[1,1′-biphenyl]-4-carbonitrile]
4 | 25 to 100 | N#Cc1ccc(-c2cccc(CC3CNCCO3)c2-c2cnco2)cc1F (stereo not shown) [Example 47, 3-fluoro-3′-[(morpholin-2-yl)methyl]-2′-(1,3-oxazol-5-yl)-[1,1′-biphenyl]-4-carbonitrile]
5 | 10 to 25 | N#Cc1ccc(-c2cccc(CC3CNCCO3)c2-c2cncs2)cc1F (stereo not shown) [Example 48, 3-fluoro-3′-[(morpholin-2-yl)methyl]-2′-(1,3-thiazol-5-yl)-[1,1′-biphenyl]-4-carbonitrile]
6 | 25 to 100 | N#Cc1ccc(-c2cc(F)cc(CC3CNCCO3)c2-c2cnco2)cc1F (stereo not shown) [Example 49, 3,5′-difluoro-3′-[(morpholin-2-yl)methyl]-2′-(1,3-oxazol-5-yl)-[1,1′-biphenyl]-4-carbonitrile]
7 | 100 to 1000 | N#Cc1ccc(-c2cccc(CC3CNCCO3)c2N2CCC2)cc1 (stereo not shown) [Example 50, 2′-(azetidin-1-yl)-3′-[(morpholin-2-yl)methyl]-[1,1′-biphenyl]-4-carbonitrile]
8 | 25 to 100 | Cc1ncoc1-c1c(CC2CNCCO2)cccc1-c1ccc(C#N)c(F)c1 (stereo not shown) [Example 51, 3-fluoro-2′-(4-methyl-1,3-oxazol-5-yl)-3′-[(morpholin-2-yl)methyl]-[1,1′-biphenyl]-4-carbonitrile]
9 | 100 to 1000 | COC1CCN(c2ccc(CC3CNCCO3)cc2-c2ccc(C#N)c(F)c2)CC1 (stereo not shown) [Example 52, 3-fluoro-2′-(4-methoxypiperidin-1-yl)-5′-[(morpholin-2-yl)methyl]-[1,1′-biphenyl]-4-carbonitrile]
10 | 10 to 25 | Cc1cc(CC2CNCCO2)c(-c2ccns2)c(-c2ccc(C#N)cc2)c1 (stereo not shown) [Example 53, 5′-methyl-3′-[(morpholin-2-yl)methyl]-2′-(1,2-thiazol-5-yl)-[1,1′-biphenyl]-4-carbonitrile]
11 | 100 to 1000 | COCC1CN(c2ccc(CC3CNCCO3)cc2-c2ccc(C#N)c(F)c2)C1 (stereo not shown) [Example 55, 3-fluoro-2′-[3-(methoxymethyl)azetidin-1-yl]-5′-[(morpholin-2-yl)methyl]-[1,1′-biphenyl]-4-carbonitrile]
12 | 25 to 100 | Cn1ncc2cc(-c3ccc(CC4CNCCO4)cc3-c3ccc(C#N)c(F)c3)cnc21 (stereo not shown) [Example 56, 3-fluoro-2′-{1-methyl-1H-pyrazolo[3,4-b]pyridin-5-yl}-5′-[(morpholin-2-yl)methyl]-[1,1′-biphenyl]-4-carbonitrile]
13 | 10 to 25 | N#Cc1ccc(-c2cc(C3CC3)cc(CC3CNCCO3)c2-c2cncs2)cc1F (stereo not shown) [Example 57, 5′-cyclopropyl-3-fluoro-3′-[(morpholin-2-yl)methyl]-2′-(1,3-thiazol-5-yl)-[1,1′-biphenyl]-4-carbonitrile]
14 | 100 to 1000 | N#Cc1ccc(-c2cc(CC3CNCCO3)ccc2N2CCC(c3ncccn3)CC2)cc1F (stereo not shown) [Example 59, 3-fluoro-5′-[(morpholin-2-yl)methyl]-2′-[4-(pyrimidin-2-yl)piperidin-1-yl]-[1,1′-biphenyl]-4-carbonitrile]
15 | 25 to 100 | N#Cc1ccc(-c2cc(CC3CNCCO3)ccc2N2CCC(O)(C3CC3)CC2)cc1F (stereo not shown) [Example 60, 2′-(4-cyclopropyl-4-hydroxypiperidin-1-yl)-3-fluoro-5′-[(morpholin-2-yl)methyl]-[1,1′-biphenyl]-4-carbonitrile]
16 | 100 to 1000 | COC1(C)CCN(c2ccc(CC3CNCCO3)cc2-c2ccc(C#N)c(F)c2)CC1 (stereo not shown) [Example 61, 3-fluoro-2′-(4-methoxy-4-methylpiperidin-1-yl)-5′-[(morpholin-2-yl)methyl]-[1,1′-biphenyl]-4-carbonitrile]
17 | 100 to 1000 | N#Cc1ccc(-c2cc(CC3CNCCO3)ccc2N2CC3(CCOCC3)C2)cc1F (stereo not shown) [Example 62, 3-fluoro-5′-[(morpholin-2-yl)methyl]-2′-{7-oxa-2-azaspiro[3.5]nonan-2-yl}-[1,1′-biphenyl]-4-carbonitrile]
18 | 100 to 1000 | CCOCC1(O)CCN(c2ccc(CC3CNCCO3)cc2-c2ccc(C#N)c(F)c2)CC1 (stereo not shown) [Example 63, 2′-[4-(ethoxymethyl)-4-hydroxypiperidin-1-yl]-3-fluoro-5′-[(morpholin-2-yl)methyl]-[1,1′-biphenyl]-4-carbonitrile]
19 | 25 to 100 | N#Cc1ccc(-c2cccc(CC3CNCCO3)c2C2=CCCC2)cc1F (stereo not shown) [Example 64, 2′-(cyclopent-1-en-1-yl)-3-fluoro-3′-[(morpholin-2-yl)methyl]-[1,1′-biphenyl]-4-carbonitrile]
20 | > 1000 | N#Cc1ccc(-c2cccc(CC3CNCCO3)c2-c2ncco2)cc1F (stereo not shown) [Example 65, 3-fluoro-3′-[(morpholin-2-yl)methyl]-2′-(1,3-oxazol-2-yl)-[1,1′-biphenyl]-4-carbonitrile]
21 | 100 to 1000 | CC(C)C1(O)CCN(c2ccc(CC3CNCCO3)cc2-c2ccc(C#N)c(F)c2)C1 (stereo not shown) [Example 66, 3-fluoro-2′-[3-hydroxy-3-(propan-2-yl)pyrrolidin-1-yl]-5′-[(morpholin-2-yl)methyl]-[1,1′-biphenyl]-4-carbonitrile]
22 | 25 to 100 | COCC1CCN(c2ccc(CC3CNCCO3)cc2-c2ccc(C#N)c(F)c2)CC1 (stereo not shown) [Example 67, 3-fluoro-2′-[4-(methoxymethyl)piperidin-1-yl]-5′-[(morpholin-2-yl)methyl]-[1,1′-biphenyl]-4-carbonitrile]
23 | 25 to 100 | COCc1ccc(-c2ccc(CC3CNCCO3)cc2-c2ccc(C#N)c(F)c2)c(F)c1 (stereo not shown) [Example 68, 3-fluoro-2′-[2-fluoro-4-(methoxymethyl)phenyl]-5′-[(morpholin-2-yl)methyl]-[1,1′-biphenyl]-4-carbonitrile]
24 | 100 to 1000 | Cc1ncc(-c2c(CC3CNCCO3)cccc2-c2ccc(C#N)c(F)c2)o1 (stereo not shown) [Example 69, 3-fluoro-2′-(2-methyl-1,3-oxazol-5-yl)-3′-[(morpholin-2-yl)methyl]-[1,1′-biphenyl]-4-carbonitrile]
25 | 25 to 100 | N#Cc1ccc(-c2cc(CC3CNCCO3)ccc2N2CCC3(CCOC3)CC2)cc1F (stereo not shown) [Example 70, 3-fluoro-5′-[(morpholin-2-yl)methyl]-2′-{2-oxa-8-azaspiro[4.5]decan-8-yl}-[1,1′-biphenyl]-4-carbonitrile]
26 | < 10 | N#Cc1ccc(-c2cccc(CC3CCCNC3)c2-c2ccns2)cc1F (stereo not shown) [Example 71, 3-fluoro-3′-[(piperidin-3-yl)methyl]-2′-(1,2-thiazol-5-yl)-[1,1′-biphenyl]-4-carbonitrile]
27 | 100 to 1000 | N#Cc1ccc(-c2cc(CC3CNCCO3)ccc2OC[C@@H]2CCCOC2)cc1F (stereo partly drawn) [Example 72, 3-fluoro-5′-[(morpholin-2-yl)methyl]-2′-{[(3R)-oxa-3-yl]methoxy}-[1,1′-biphenyl]-4-carbonitrile]
28 | 25 to 100 | N#Cc1ccc(-c2cc(CC3CNCCO3)ccc2N2CCC(C3CCCO3)CC2)cc1F (stereo not shown) [Example 73, 3-fluoro-5′-[(morpholin-2-yl)methyl]-2′-[4-(oxolan-2-yl)piperidin-1-yl]-[1,1′-biphenyl]-4-carbonitrile]
